Laboratory results published in patent US10597388B2, “Pyridazinone herbicides” (FMC CORPORATION, priority 2014, dated 2020).

How the values were obtained:
Test in all cases: Test D controlled growth environment herbicide test, pre- and postemergence
Format in all cases: in vivo
[1] = tested on: barley, winter (winter barley, Hordeum vulgare)
Method in brief: (§1)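 Species sown in silt loam and sprayed preemergence, or grown in peat-based medium to 2–18 cm (1- to 4-leaf stage) and sprayed postemergence, with compounds in non-phytotoxic solvent plus surfactant. Visual injury scored versus controls after 14–21 d in a controlled environment, 0 (no effect) to 100 (complete control).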

[2] = tested on: blackgrass (Alopecurus myosuroides)
Method in brief: as §1

[3] = tested on: bluegrass (annual bluegrass, Poa annua)
Method in brief: as §1

[4] = tested on: bromegrass, downy (downy bromegrass, Bromus tectorum)
Method in brief: as §1

[5] = tested on: chamomile (scentless chamomile, Matricaria inodora)
Method in brief: as §1

[6] = tested on: chickweed (common chickweed, Stellaria media)
Method in brief: as §1

[7] = tested on: field violet (Viola arvensis)
Method in brief: as §1

[8] = tested on: foxtail, green (green foxtail, Setaria viridis)
Method in brief: as §1

[9] = tested on: galium (catchweed bedstraw, Galium aparine)
Method in brief: as §1

kochia (Kochia scoparia) = tested on: kochia (Kochia scoparia)
Method in brief: as §1

[10] = tested on: lambsquarters (Chenopodium album)
Method in brief: as §1

[11] = tested on: pigweed (Amaranthus retroflexus)
Method in brief: as §1

[12] = tested on: wheat, winter (winter wheat, Triticum aestivum)
Method in brief: as §1

[13] = Postemergence, 31 g ai/ha, scale 0 to 100 (0 no effect, 100 complete control)
[14] = Postemergence, 125 g ai/ha, visual rating on scale 0 (no effect) to 100 (complete control), 14 to 21 d
[15] = Postemergence, 250 g ai/ha, scale 0 to 100 (0 no effect, 100 complete control)
[16] = Preemergence, 62 g ai/ha, scale 0 to 100 (0 no effect, 100 complete control)
[17] = Preemergence, 125 g ai/ha, scale 0 to 100 (0 no effect, 100 complete control)
[18] = Preemergence, 250 g ai/ha, scale 0 to 100, 0 no effect, 100 complete control
[19] = postemergence, 62 g ai/ha, scale 0 to 100, 0 no effect, 100 complete control

Cc1ccc2sc(C)c(-c3c(OC(=O)OC(C)C)c(C)nn(C)c3=O)c2c1 [Compound 66]
Barley, Winter plant response rating [1, 13]: 0
Plant response rating, Barley, Winter [1, 14]: 0
Plant response rating, Barley, Winter [1, 15]: 5
Plant response rating (scale of 0 to 100), Barley, Winter ([1]; Preemergence, 31 g ai/ha): 0
Plant response rating, Barley, Winter [1, 16]: 0
Plant response rating, Barley, Winter [1, 17]: 0
Plant response rating, Barley, Winter [1, 18]: 10
Plant response rating, Barley, Winter [1, 19]: 0
Blackgrass plant response rating [2, 13]: 65
Plant response rating, Blackgrass [2, 14]: 75
Plant response rating, Blackgrass [2, 15]: 75
Plant response rating (scale of 0 to 100), Blackgrass ([2]; Preemergence, 31 g ai/ha): 25
Plant response rating, Blackgrass [2, 16]: 70
Plant response rating, Blackgrass [2, 17]: 75
Plant response rating, Blackgrass [2, 18]: 80
Plant response rating, Blackgrass [2, 19]: 70
Bluegrass plant response rating [3, 13]: 0
Plant response rating, Bluegrass [3, 14]: 30
Plant response rating, Bluegrass [3, 15]: 35
Plant response rating (scale of 0 to 100), Bluegrass ([3]; Preemergence, 31 g ai/ha): 10
Plant response rating, Bluegrass [3, 16]: 15
Plant response rating, Bluegrass [3, 17]: 25
Plant response rating, Bluegrass [3, 18]: 30
Plant response rating, Bluegrass [3, 19]: 25
Bromegrass, Downy plant response rating [4, 13]: 50
Plant response rating, Bromegrass, Downy [4, 14]: 65
Plant response rating, Bromegrass, Downy [4, 15]: 70
Plant response rating (scale of 0 to 100), Bromegrass, Downy ([4]; Preemergence, 31 g ai/ha): 15
Plant response rating, Bromegrass, Downy [4, 16]: 60
Plant response rating, Bromegrass, Downy [4, 17]: 80
Plant response rating, Bromegrass, Downy [4, 18]: 85
Plant response rating, Bromegrass, Downy [4, 19]: 60
Chamomile plant response rating [5, 13]: 85
Plant response rating, Chamomile [5, 14]: 100
Plant response rating, Chamomile [5, 15]: 100
Plant response rating (scale of 0 to 100), Chamomile ([5]; Preemergence, 31 g ai/ha): 90
Plant response rating, Chamomile [5, 16]: 100
Plant response rating, Chamomile [5, 17]: 100
Plant response rating, Chamomile [5, 18]: 100
Plant response rating, Chamomile [5, 19]: 90
Chickweed plant response rating [6, 13]: 75
Plant response rating, Chickweed [6, 14]: 100
Plant response rating, Chickweed [6, 15]: 100
Plant response rating (scale of 0 to 100), Chickweed ([6]; Preemergence, 31 g ai/ha): 90
Plant response rating, Chickweed [6, 16]: 100
Plant response rating, Chickweed [6, 17]: 100
Plant response rating, Chickweed [6, 18]: 100
Plant response rating, Chickweed [6, 19]: 85
Field Violet plant response rating [7, 13]: 85
Plant response rating, Field Violet [7, 14]: 95
Plant response rating, Field Violet [7, 15]: 95
Plant response rating (scale of 0 to 100), Field Violet ([7]; Preemergence, 31 g ai/ha): 60
Plant response rating, Field Violet [7, 16]: 85
Plant response rating, Field Violet [7, 17]: 95
Plant response rating, Field Violet [7, 18]: 98
Plant response rating, Field Violet [7, 19]: 95
Foxtail, Green plant response rating [8, 13]: 75
Plant response rating, Foxtail, Green [8, 14]: 90
Plant response rating, Foxtail, Green [8, 15]: 98
Plant response rating (scale of 0 to 100), Foxtail, Green ([8]; Preemergence, 31 g ai/ha): 15
Plant response rating, Foxtail, Green [8, 16]: 35
Plant response rating, Foxtail, Green [8, 17]: 65
Plant response rating, Foxtail, Green [8, 18]: 70
Plant response rating, Foxtail, Green [8, 19]: 80
Galium plant response rating [9, 13]: 85
Plant response rating, Galium [9, 14]: 100
Plant response rating, Galium [9, 15]: 100
Plant response rating (scale of 0 to 100), Galium ([9]; Preemergence, 31 g ai/ha): 0
Plant response rating, Galium [9, 16]: 20
Plant response rating, Galium [9, 17]: 65
Plant response rating, Galium [9, 18]: 75
Plant response rating, Galium [9, 19]: 100
Kochia plant response rating (kochia (Kochia scoparia); [13]): 85
Plant response rating, Kochia (kochia (Kochia scoparia); [14]): 100
Plant response rating, Kochia (kochia (Kochia scoparia); [15]): 100
Plant response rating (scale of 0 to 100), Kochia (kochia (Kochia scoparia); Preemergence, 31 g ai/ha): 0
Plant response rating, Kochia (kochia (Kochia scoparia); [16]): 15
Plant response rating, Kochia (kochia (Kochia scoparia); [17]): 75
Plant response rating, Kochia (kochia (Kochia scoparia); [18]): 85
Plant response rating, Kochia (kochia (Kochia scoparia); [19]): 95
Lambsquarters plant response rating [10, 13]: 95
Plant response rating, Lambsquarters [10, 14]: 100
Plant response rating, Lambsquarters [10, 15]: 100
Plant response rating (scale of 0 to 100), Lambsquarters ([10]; Preemergence, 31 g ai/ha): 55
Plant response rating, Lambsquarters [10, 16]: 100
Plant response rating, Lambsquarters [10, 17]: 100
Plant response rating, Lambsquarters [10, 18]: 100
Plant response rating, Lambsquarters [10, 19]: 95
Pigweed plant response rating [11, 13]: 95
Plant response rating, Pigweed [11, 14]: 100
Plant response rating, Pigweed [11, 15]: 100
Plant response rating (scale of 0 to 100), Pigweed ([11]; Preemergence, 31 g ai/ha): 30
Plant response rating, Pigweed [11, 16]: 100
Plant response rating, Pigweed [11, 17]: 100
Plant response rating, Pigweed [11, 18]: 100
Plant response rating, Pigweed [11, 19]: 100
Wheat, Winter plant response rating [12, 13]: 0
Plant response rating, Wheat, Winter [12, 14]: 0
Plant response rating, Wheat, Winter [12, 15]: 0
Plant response rating (scale of 0 to 100), Wheat, Winter ([12]; Preemergence, 31 g ai/ha): 0
Plant response rating, Wheat, Winter [12, 16]: 0
Plant response rating, Wheat, Winter [12, 17]: 0
Plant response rating, Wheat, Winter [12, 18]: 0
Plant response rating, Wheat, Winter [12, 19]: 0
